Assay results reported in patent publication US10357533B2, “Drug for the effective control of acute and or chronic pain and a method for its administration” (PVP LABS PTE. LTD., priority 2016, dated 2019).
Where a SMILES comes first, the peptide text is derived from it. [ ]: non-standard residue; d: D form.

Legend:
Type in all cases: in vivo
mice [1] = experiment: Duration of analgesic effect in the tail flick test in mice
Experimental: (§1) This stage involved selecting the effective doses of peptide compound in the tail flick test in mice after a single subcutaneous administration of the substance at doses of 0.01, 0.05, 0.1, 0.5, 0.7, 1 and 5 mg/kg. Tail flick method is based on a spinal flexion reflex in response to a progressively increasing effect of thermal radiation on the surface of skin. A pain stimulus was applied to the tail locally, by the action of thermal radiation, using a TSE Systems analgesiometer (Germany). Stimulus intensity was set, corresponding to an increase in temperature from 30° C. to 60° C. over 13 seconds. The tail flick latency (TFL) of 13 seconds was used as the maximum allowable time of stimulation. The mice in test groups were given peptide compound, and control group mice were given the solvent (water for injections) by subcutaneous. Tail flick latency was evaluated 40 minutes after the administration of the study substance or solvent. The analysis of experimental results involved calculating the maximum possible effect (MPE).
The duration of analgesic effect of peptide compound was evaluated in the tail flick test in mice as described above.
Peptide compound was administered to mice subcutaneously at a doses of 0.5 mg/kg, 1.5 mg/kg and 4.5 mg/kg. The control group of animals was given a subcutaneous injection of the vehicle (water for injections). TFL test was evaluated in mice that received peptide compound at 30 minutes and at 1, 2, 4, 6, and 8 hours after dosing.

mice [2] = experiment: Balancing on a horizontal rod test in mice
Experimental: (§2) The substance was injected intraperitoneally in identical weight amounts to laboratory animals in the experimental and control groups, respectively. […] The measurement was started 15 minutes after injection.
Animals were placed on a wooden rod with a diameter of 2 cm and 40 cm long, at a height of not less than 60 cm. Then we recorded the duration maintenance of equilibrium on the rod. We processed the results using single factor dispersal analysis ANOVA.

mice [3] = experiment: Tail flick test in mice, dose-dependent analgesic effect
Experimental: as §1

mice [4] = experiment: Acetic acid-induced writhing test in mice; conditions: for Number of writhings, n (Mean ± SEM): 15 minutes count
Experimental: The acetic acid-induced writhing test is a model of a chemical nociceptive stimulus applied by the intraperitoneal injection of acetic acid solution.
Intraperitoneal injection of substances that irritate serous membranes in mice induces distinctive movements, including contractions of abdominal muscles followed by muscle relaxation, extension of the hind limbs and curving of the back, known as writhing. Mice were given an intraperitoneal injection of 1% acetic acid at a dose of 0.1 mL per 10 g body weight. After the injection the mice were placed in transparent acrylic chambers and counted the number of writhings in each animal for the next 15 minutes. The analgesic effect was evaluated by a reduction in the number of writhings in mice that received the study drug relative to the control group. […] Writhing onset latency in mice was used as an additional parameter for evaluating the efficacy of the substance in the acetic acid-induced writhing test.

mice [5] = experiment: Open field test and toxicity of high doses in mice; conditions: intraperitoneally
Experimental: Testing of the influence of the injectable substance based on tetrapeptide (as in example 2) H-Tyr-D-Arg-Phe-Gly-NH2 on the behavior of animals, was provided in the study of the toxicity of high doses of the “open field” test and maintaining balance on a horizontal rod.
The aim of the experiment was to identify an effective dose of the substance that affects the behavior of the animals. It was tested on several animals after administration of different doses of peptide compound.
The experimental and control groups of male mice were taken from the same batch, about the same weight (22-24 g).
as §2
Several groups were organized: without the introduction of the substance, and with the introduction of a solution of morphine or peptide. After 15 from injection we conducted measurement in the following order:
Each animal tested was introduced into a round, not brightly lit arena. The surface is divided into square blocks of 10 cm each. We count locomotor activity of the mouse when it crossed the square. The movement of the mouse in the center of the arena and on the periphery, are recorded separately. We registered the number of times the mouse stands on its hind legs “stand” and the number of times the mouse looks into a “burrow”—ie. holes in the floor. Observations were done visually and were simultaneously entered into a computer using a keyboard (semi-automatic registration).

[6] = 0.05 mg/kg subcutaneous, 40 minutes
[7] = 0.1 mg/kg subcutaneous, 40 minutes
[8] = 0.5 mg/kg subcutaneous, 40 minutes
[9] = 0.7 mg/kg subcutaneous, 40 minutes
[10] = 1 mg/kg subcutaneous, 40 minutes
[11] = 5 mg/kg subcutaneous, 40 minutes

N=C(N)NCCC[C@@H](NC(=O)[C@@H](N)Cc1ccc(O)cc1)C(=O)N[C@@H](Cc1ccccc1)C(=O)NCC(N)=O [Peptide compound, H-Tyr-D-Arg-Phe-Gly-NH2] (H-Y[dR]FG-NH2)
MPE, % (Mean ± SEM) (mice [1]; 0.5 mg/kg subcutaneous, 0.5 hours): 45.6 ± 13.31% | MPE, % (Mean ± SEM) (mice [1]; 0.5 mg/kg subcutaneous, 1 hours): 49.9 ± 11.54% | MPE, % (Mean ± SEM) (mice [1]; 0.5 mg/kg subcutaneous, 2 hours): 15.5 ± 4.78% | MPE, % (Mean ± SEM) (mice [1]; 0.5 mg/kg subcutaneous, 4 hours): 6.3 ± 2.43% | MPE, % (Mean ± SEM) (mice [1]; 0.5 mg/kg subcutaneous, 6 hours): 6.3 ± 2.94% | MPE, % (Mean ± SEM) (mice [1]; 0.5 mg/kg subcutaneous, 8 hours): −2.6 ± 3.18% | MPE, % (Mean ± SEM) (mice [1]; 1.5 mg/kg subcutaneous, 0.5 hours): 97.2 ± 2.78% | MPE, % (Mean ± SEM) (mice [1]; 1.5 mg/kg subcutaneous, 1 hours): 62.7 ± 14.4% | MPE, % (Mean ± SEM) (mice [1]; 1.5 mg/kg subcutaneous, 2 hours): 33.4 ± 4.85% | MPE, % (Mean ± SEM) (mice [1]; 1.5 mg/kg subcutaneous, 4 hours): 25.6 ± 11.69% | MPE, % (Mean ± SEM) (mice [1]; 1.5 mg/kg subcutaneous, 6 hours): 4.6 ± 7.8% | MPE, % (Mean ± SEM) (mice [1]; 1.5 mg/kg subcutaneous, 8 hours): 5.3 ± 3.46% | MPE, % (Mean ± SEM) (mice [1]; 4.5 mg/kg subcutaneous, 0.5 hours): 100.0 ± 0.00% | MPE, % (Mean ± SEM) (mice [1]; 4.5 mg/kg subcutaneous, 1 hours): 100.0 ± 0.00% | MPE, % (Mean ± SEM) (mice [1]; 4.5 mg/kg subcutaneous, 2 hours): 100.0 ± 0.00% | MPE, % (Mean ± SEM) (mice [1]; 4.5 mg/kg subcutaneous, 4 hours): 49.9 ± 10.21% | MPE, % (Mean ± SEM) (mice [1]; 4.5 mg/kg subcutaneous, 6 hours): 6.5 ± 5.94% | MPE, % (Mean ± SEM) (mice [1]; 4.5 mg/kg subcutaneous, 8 hours): 2.6 ± 4.0% | maximum duration of the analgesic effect (mice [1]; after dosing with 1.5 mg/kg and 4.5 mg/kg): 4 h | reduced activity in horizontal movement on the rod (mice [2]; higher doses 20-100 mg/kg): 10-20% | maintaining balance on a horizontal rod, experimental vs control groups (mice [2]; intraperitoneally): did not observe significant differences | Proportion of the maximum possible effect (MPE), % (mice [3]; 0.01 mg/kg subcutaneous, 40 minutes): 18.7% | TFL, s (Mean ± SEM) (mice [3]; 0.01 mg/kg subcutaneous, 40 minutes after administration): 5.89 ± 0.19 s | Proportion of the maximum possible effect (MPE), % (mice [3]; [6]): 42.5% | TFL, s (Mean ± SEM) (mice [3]; [6]): 7.97 ± 0.78 s | Proportion of the maximum possible effect (MPE), % (mice [3]; [7]): 47.0% | TFL, s (Mean ± SEM) (mice [3]; [7]): 8.36 ± 0.68 s | Proportion of the maximum possible effect (MPE), % (mice [3]; [8]): 55.7% | TFL, s (Mean ± SEM) (mice [3]; [8]): 9.12 ± 0.92 s | Proportion of the maximum possible effect (MPE), % (mice [3]; [9]): 57.5% | TFL, s (Mean ± SEM) (mice [3]; [9]): 10.15 ± 0.74 s | Proportion of the maximum possible effect (MPE), % (mice [3]; [10]): 94.6% | TFL, s (Mean ± SEM) (mice [3]; [10]): 12.53 ± 0.24 s | Proportion of the maximum possible effect (MPE), % (mice [3]; [11]): 100% | TFL, s (Mean ± SEM) (mice [3]; [11]): 13.00 ± 0 s | higher level of activity in comparison with morphine (mice [3]; tail flick): 10-15 times | dose of morphine with close activity (mice [3]; tail flick, peptide compound 0.1 mg/kg dose): ~4 mg/kg | dose of morphine with close activity (mice [3]; tail flick, peptide compound 0.5 mg/kg dose): 7 to 8 mg/kg | dose at which the effect of full analgesia was observed (mice [3]; tail flick, subcutaneous): 1 mg/kg | increase in writhing onset latency relative to the control group, factor (mice [4]; 0.25 mg/kg): 2.6 | reduction of visceral pain (number of writhings) relative to the control group, factor (mice [4]; 0.25 mg/kg): 2.2 | % of mice w/o writhing (mice [4]; 0.25 mg/kg subcutaneous): 0% | Number of mice w/o writhing/number of mice in group (mice [4]; 0.25 mg/kg subcutaneous): 0/9 | Writhing onset latency, s (Mean ± SEM) (mice [4]; 0.25 mg/kg subcutaneous): 397.2 ± 69.95 s | Number of writhings, n (Mean ± SEM) (mice [4]; 0.25 mg/kg subcutaneous 40 minutes before acetic acid): 40.7 ± 4.50 n | animals that exhibited writhing (mice [4]; 0.25 mg/kg subcutaneously): 100% | animals in which the pain response was observed (mice [4]; 0.5 mg/kg): 40.0% | increase in writhing onset latency relative to the control group, factor (mice [4]; 0.5 mg/kg): 4.1 | reduction of visceral pain (number of writhings) relative to the control group, factor (mice [4]; 0.5 mg/kg): 31.8 | % of mice w/o writhing (mice [4]; 0.5 mg/kg subcutaneous): 40.0% | Number of mice w/o writhing/number of mice in group (mice [4]; 0.5 mg/kg subcutaneous): 4/10 | Writhing onset latency, s (Mean ± SEM) (mice [4]; 0.5 mg/kg subcutaneous): 632.5 ± 80.62 s | Number of writhings, n (Mean ± SEM) (mice [4]; 0.5 mg/kg subcutaneous 40 minutes before acetic acid): 2.8 ± 1.00 n | animals in which the pain response was observed (mice [4]; 1 mg/kg): 55.6% | increase in writhing onset latency relative to the control group, factor (mice [4]; 1 mg/kg): 4.9 | reduction of visceral pain (number of writhings) relative to the control group, factor (mice [4]; 1 mg/kg): 74.2 | % of mice w/o writhing (mice [4]; 1 mg/kg subcutaneous): 55.6% | Number of mice w/o writhing/number of mice in group (mice [4]; 1 mg/kg subcutaneous): 5/9 | Writhing onset latency, s (Mean ± SEM) (mice [4]; 1 mg/kg subcutaneous): 762.8 ± 55.76 s | Number of writhings, n (Mean ± SEM) (mice [4]; 1 mg/kg subcutaneous 40 minutes before acetic acid): 1.2 ± 0.49 n | doses that do not result in toxic effects (mice [5]): up to 200 EC50 | toxic effects (mice [5]; dose of 100 mg/kg): the animals continued to move actively, breathing was not inhibited, and heart beats were stable | reduced activity moving around the field (mice [5]; open field, dose of 20-100 mg/kg, 15 minutes after injection): 20-25% | reduction in exploratory activity ("stand-burrow") (mice [5]; open field, large doses): 20-30%
